Results taken from US20110136752A1, “NOVEL ANTIBIOTICS” (priority 2009, published 2011).

Columns and labels:
[1] = Single-dose acute toxicity in mice; conditions: mouse, in vivo; female CD-1 mice, SC, 3 doses of 50 mg/kg 2 hours apart in 0.5% methylocellulose, followed for 2 days
Procedure: Single-dose, acute toxicity experiments were carried out in female CD-1 mice. The animals were acclimated for 3 days and were 7 weeks old at the start of the experiments. Their weight ranged from 16 to 24 g.
In order to determine the maximum tolerated dose, a group of 3 mice was dosed with a total of 4.9 mg/kg of NOVO4 (10% DMSO in saline) delivered as two separate IV doses, 2 hr apart. In addition, another 3 mice were dosed subcutaneously with a total of 150 mg/kg of NOVO4 in 0.5% methylocellulose, delivered as 3 doses of 50 mg/kg each, 2 hours apart. The mice were then followed for 2 days.
This indicated a very high MTD of >150 mg/kg for NOVO4.

[2] = system: NIH3T3 mouse embryonic fibroblasts; experiment: Mammalian cytotoxicity, CellTiter 96 AQueous One Solution assay; format: cell-based; conditions: NIH3T3 cells, 24 hr, highest tested concentration 16 μg/ml
Procedure: Mammalian cytotoxicity assays were performed using NIH3T3 mouse embryonic fibroblasts (ATCC CRL-1658), and cytotoxicity was measured using the CellTiter 96® AQueous One Solution Cell Proliferation Assay (Promega, Madison, Wis., Cat: G3582), according to the manufacturer's recommendations.
100× working stocks of 2-fold serial dilution of NOVO4 in DMSO were created in a 96 well format. The highest concentration of the 100× concentration (working stock) was prepared by adding […] of the stock solution of NOVO4 (10 mg/ml in DMSO) for every 0.68 μl of DMSO to well A02. 0.5 μl of this 100× stock was added for every 0.5 μl of DMSO in well A03 to create a total of 7 two-fold serial dilution series, from 1600 μg/ml to 25 μg/ml (from highest in well A02 to A08,). A DMSO control was also included (wells in column A01, and A12). […]
The plate was visually inspected under a dissecting microscope, and the absorbance at 490 nm was read using a Spectramax Plus Spectrophotometer, with wells A12, and B12 reserved as blanks The signal of compound alone (well A11) was verified not to contribute to the absorbance at this wavelength. Next, 20 μl of the CellTiter 96® AQueous One Solution Cell Proliferation Assay (Promega, Madison, Wis., Cat: G3582) was added to each well, and the plate was read after 3 hr of incubation. […]

human red blood cells = format: cell-based
Procedure: The effect of NOVO4 on the hemolysis of human red blood cells was also tested. A total of 10 ml of expired packed red blood cells from the blood bank was gently added to 80 ml of PBS (Phosphate buffered saline), and pelleted at 1000 g for 5 minutes at 4° C. The upper phase and buffy layer (white blood cells) were removed. The cells are repeatedly washed by gentle mixing with PBS, and centrifugation until the upper phase is clear. In the last wash, 40 ml of 1× PBS with 0.05% BSA was added to half of the red blood cells while 40 ml of 1× PBS without BSA was added to the other half. The upper phase of the last wash was removed to leave a total volume of about 10 ml. The concentration of the red blood cells was measured by using the spectrophometer at 600 nm. An aliquot of the cells are diluted to a final density OD600 of 24 in 1× PBS, and another to a final density OD600 of 24 in 1× PBS with 0.05% BSA.
The compound NOVO4 is two-fold serially diluted (similar to that described above for mammalian NIH3T3 cytotoxicity assay) as 100× concentration in DMSO, ranging from 0.4 μg/ml to 400 μg/ml. […] After thorough mixing, the A450 was read using a Spectramax Plus Spectrophotometer, using wells with only 1× PBS as blanks […]

[3] = system: different bacterial test strains; experiment: Effect of serum or BSA supplement on MIC of NOVO4; format: cell-based
Procedure: The lowest concentration of NOVO4 without any cell growth is the MIC (Minimal Inhibitory Concentration) of NOVO4. The data is the MIC of NOVO4 on different bacterial test strains in the presence of Mueller Hinton broth (MHB) or with MHB supplemented with either […].
These studies follow the procedure for determining the MIC described above in Example 5. Briefly, two-fold serial dilution of the NOVO4 compound are added to the test cells of interest, MRSA and VRE, and the lowest concentration of compound that inhibits growth after a period of incubation is considered to be the MIC. To determine the effect of serum on the activity of NOVO4, MIC in the absence of serum is compared to MIC in media supplemented with 10% calf bovine serum (ATCC 30-2030).

With `CC1\C=C/C=C\C=C/C=C\C=C/C(OC2OCC(O)C(O)C2N)C(C)(O)/C=C/C=C\C=C/C=C/C(=O)NC1` (stereo not drawn) [NOVO4] the MTD at 2 days [1] was over 150 mg/kg, the LD50 [2] was over 16 µg/mL and the hemolysis (human red blood cells) was “no significant hemolysis”. For the same compound, the “effect of 0.05% BSA on the MIC” value ([3]; MHB versus MHB + 0.05% BSA, depending on the test organisms) was “either unchanged or lowered sightly” and the “effect of calf bovine serum on the MIC” value ([3]; MHB versus media supplemented with 10% calf bovine serum) was “no significant effect”.
With Triton X100 [reference compound] the “A450 (hemoglobin released by lysis of red blood cells)” value (human red blood cells) was 0.41.
